Where two headings read alike, the source gives them in different places.
Legend:
glutathione (GSH) level = assay: Glutathione (GSH) level in rat tissues after dietary administration; type: in vivo, Sprague Dawley rat
Experimental: Analysis of Quinone Reductase Activity and Glutathione Level in Rat Tissues. Spraque Dawley rats (n=10) at 43 days of age were placed on an appropriate experimental diet (5000, 2500, 1250, 625, and 312.5 mg/kg diet of 4'-BF) for three weeks. After three weeks, animals were sacrificed by carbon dioxide (CO2) asphyxiation. The livers, mammary glands, colons, stomachs, and lungs were collected, rinsed with saline, and frozen in liquid nitrogen and stored at -80° C. until enzyme activities were determined. Individual tissues (except mammary glands) were homogenized in 0.25 M sucrose and centrifuged at 15,000×g for 30 min at 4° C. The supernatant fluids were collected, 20% volume of 0.1 M CaCl2 in 0.25 M sucrose were added. After incubation at 0° C. for 30 min and further centrifuging at 15,000×g for 30 min at 4° C., a clear cytosolic fraction was used for enzyme assay. Mammary glands of each animal were pooled, homogenized in 1 ml ice-cold 0.1 M phosphate buffer pH 6.5 and centrifuged (15,000×g, 30 min at 4° C.), a clear supernatant suitable for enzyme assay resulted. Dicumarol-sensitive QR activity was measured in duplicate in 50 μl of suitable dilution of the tissue supernatant as described for the cellular system. GSH levels were assayed in duplicate using 96-well plates. […] The plates were shaken for 5-10 min and the extent of 2-nitro-5-thiobenzoic acid formation was monitored at 405 nm. A GSH standard curve was used to calculate the GSH content. GSH levels were expressed as nmol/mg protein.
Induction of Quinone Reductase Activity and Glutathione Level in Rat Tissues. Based on the results in cell cultures, 4'-BF was further evaluated for its inducing potency in rat liver, mammary gland, colon, stomach, and lung. […] The concentration of 4'-BF for maximum induction of GSH was about 1250 to about 2500 mg/kg diet, but varied for different organ sites.

[1] = test system: QR ARE-CAT construct, HepG2 cells; assay: CAT expression in HepG2 cells transfected with QR ARE-CAT; type: cell-based, human cells; rat QR gene; conditions: 10 μM, 48 h; p<0.0001; listed as 4'-BF
Experimental: Transcient Transfection Gene Expression Assay. Cultured HepG2 human hepatoma cells were transfected with three plasmid constructs (PDTD-1697CAT, XRE-CAT, ARE-CAT) containing various portions of the 5'-region of the QR gene fused to the CAT gene using the calcium phosphate precipitation method (J. Sambrook et al., Molecular cloning: A Laboratory Handbook, Ed. Chris Nolan, CHS Laboratory Press, 1989). After 4 hours of transfection, the cells were treated with 10% glycerol for 3 minutes and rinsed with PBS and switched to MEM, containing 100 units/ml penicillin G sodium, 100 units/ml streptomycin sulfate, nonessential amino acids, and 1 mM sodium pyruvate (Life Technologies Inc.) supplemented with 10% fetal bovine serum for 12-16 hours recovery. Then, test agents were added to the cells. After 48 hours of treatment with the test agents, cells were harvested with lysis buffer (Boehringer Mannheim Biochemical) and CAT protein expressions were assessed using a CAT ELISA kit (Boehringer Mannheim Biochemical). CAT enzyme expression was normalized for the protein content of each sample. All data were expressed as mean +/- SD. Means were compared using Student's t test with n=4.
This was further investigated in transient transfection experiments wherein human hepatoma cells were transfected with DNA constructs containing various portions of the 5' upstream promoter region of the QR gene linked to the CAT reporter gene by using the calcium phosphate precipitation method. Construct pDTD-1097CAT contains elements of the rat QR gene connected to the CAT construct gene. […]
In particular, FIG. 1 illustrates quantitation of CAT expression in HepG2 cells transfected with QR-CAT constructs. […] CAT expression (ng CAT/mg protein) was determined using a CAT ELISA, and the ratio of CAT expression between treated and control cells was calculated (ratio=treated/control).

quinone reductase (QR) = assay: Effect on DMBA-induced QR activity in rat tissues; type: in vivo, Sprague Dawley rat; conditions: liver and mammary gland
Experimental: Effect of 4'-Bromoflavone on DMBA-induced QR Activity and Cytochrome P4501A1 Activity in Rat Tissues. At 43 days of age, Sprague Dawley rats were placed on various experimental diets (Table 1) for 1 week prior to administration of a single (i.g.) dose of DMBA (15 mg). Animals then were weighed and sacrificed by CO2 asphyxiation. Tissues (livers and mammary glands) were collected, rinsed with saline, frozen in liquid nitrogen, and stored at -80° C. until analysis. Individual tissues were homogenized in 0.05 M Tris-HCl buffer (pH 7.5) containing 0.25 M sucrose. Cytosolic and microsomal fractions were obtained through differential centrifugation. Dicumarol-sensitive QR activity was measured as described above using 50 μl of suitably diluted cytosol supernatants (in duplicate). Cytochrome P4501A1-mediated EROD activities were determined as described previously in R. Poul et al. Anal. Biochem., 107, pp. 265-275 (1980) and S. Sharma et al., Cancer Res., 54, pp. […] (1994), with slight modifications using suitably diluted microsomal protein. Enzyme activities were expressed as nmol/mg protein/min. Protein content was determined using Bradford reagent with BSA as standard, and data were presented as mean ±SE and analyzed using Student's t test (n=5).
Test animals were placed on various experimental diets for one week (Table 1) prior to a single i.g. dose of DMBA (15 mg). […]

cytochrome P-4501A1 = conditions: cited from earlier work

In the case of `O=c1cc(-c2ccc(Br)cc2)oc2ccccc12` [4'-Bromoflavone], the “GSH level increase, colon” value (glutathione (GSH) level; colon, dietary) is reported as 1.40-1.72 fold, the “glutathione levels in rat tissues” value (glutathione (GSH) level; liver, mammary gland, colon, stomach, lung, short-term dietary, P<0.0001) is reported as “significantly increased” and the “GSH level increase, liver” value (glutathione (GSH) level; liver, dietary) is reported as 1.62-1.83 fold. For the same compound, the “GSH level increase, lung” value (glutathione (GSH) level; lung, dietary) was 1.09-1.42 fold, the “GSH level increase, mammary gland” value (glutathione (GSH) level; mammary gland, dietary) was 1.01-1.28 fold and the “GSH level increase, stomach” value (glutathione (GSH) level; stomach, dietary) was 1.16-1.17 fold. For the same compound, the “CAT expression, QR ARE-CAT” value [1] was “significantly (P<0.0001, students t test with n=4) induced”, the “QR activity vs control (basal diet)” value (quinone reductase (QR); 1 week diet, DMBA 15 mg i.g.) was “significantly induced” and the “QR activity vs DMBA alone” value (quinone reductase (QR); DMBA and 4'-BF or 4'-BF alone) was “significant dose-dependent induction”. The “levels of cytochrome P-4501A1” value (cytochrome P-4501A1) was “significantly increase” and the “levels of cytochrome P-4501A1” value (cytochrome P-4501A1; listed as 4'-bromoflavone) was “phase I induction”.
